# What was measured:
# HeLa = assay: Cytotoxicity against human HeLa cells by MTT assay; assay type: functional, cell-based
# [1] = Antioxidant activity assessed as trolox equivalent at 0.5 to 2.0 uM by ORAC-fluorescein assay; assay type: functional
# [2] = Antioxidant activity assessed as trolox equivalent at 0.3 to 1 uM by ORAC-fluorescein assay; assay type: functional
# [3] = Antioxidant activity assessed as trolox equivalent at 0.1 to 1 uM by ORAC-fluorescein assay; assay type: functional
# [4] = Antioxidant activity assessed as trolox equivalent at 0.25 to 1.5 uM by ORAC-fluorescein assay; assay type: functional
# [5] = Antioxidant activity assessed as trolox equivalent at 0.2 to 0.6 uM by ORAC-fluorescein assay; assay type: functional
# [6] = Antioxidant activity assessed as trolox equivalent at 0.4 to 1 uM by ORAC-fluorescein assay; assay type: functional
# [7] = Antioxidant activity assessed as trolox equivalent at 0.1 to 1.5 uM by ORAC-fluorescein assay; assay type: functional
SMILES,IC50 (HeLa),Activity [4],other results
COc1ccc(/C=C/C(=O)c2c(OC)cc(O)c(CC=C(C)C)c2O)cc1OC,17.1 µM,,Activity [1]: 0.9
COc1cc(/C=C/C(=O)O)ccc1O,,,Activity [2]: 4.47
COc1cc(O)cc(O)c1C(=O)/C=C/c1ccc(O)cc1 [HELICHRYSETIN],5.2 µM,,Activity [3]: 4.4
COc1cc(O)c(CC=C(C)C)c(O)c1C(=O)/C=C/c1cc(O)c(O)c(O)c1,30.3 µM,,Activity [3]: 1.1
COc1cc(O)c(CC=C(C)C)c(O)c1C(=O)/C=C/c1cccc(O)c1,4.8 µM,2.7,
COc1cc(O)c(C(=O)/C=C/c2ccc(O)cc2)c(O)c1CC=C(C)C [XANTHOGALENOL],28.3 µM,1.8,
COc1cc(O)c(CC=C(C)C)c(O)c1C(=O)/C=C/c1ccccc1O,5.9 µM,2.3,
CC(C)=CCc1c(O)cc(O)c(C(=O)/C=C/c2ccc(O)cc2)c1O [DEMETHYLXANTHOHUMOL],16.5 µM,3.8,
COc1cc(O)c(CC=C(C)C)c(O)c1C(=O)/C=C/c1cc(O)cc(O)c1,3.2 µM,,Activity [3]: 2.9
O=c1c(O)c(-c2ccc(O)c(O)c2)oc2cc(O)cc(O)c12,,,Activity [5]: 10.5
COc1cc(O)c(C(=O)/C=C/c2ccc(O)cc2)c(OC)c1CC=C(C)C,25.6 µM,1.5,
COc1cc(O)cc(O)c1C(=O)/C=C/c1ccc(O)c(O)c1,14.8 µM,3,
COc1cc(O)c(CC=C(C)C)c(O)c1C(=O)/C=C/c1ccc(O)cc1 [XANTHOHUMOL],9.4 µM,2.3,
COc1cc(O)c(CC=C(C)C)c(O)c1C(=O)/C=C/c1ccc(O)c(O)c1,2.5 µM,,Activity [3]: 3.1
O=C(O)/C=C/c1ccc(O)cc1,,,Activity [6]: 4.51
COc1cc(OC)c(C(=O)/C=C/c2ccc(O)cc2)c(O)c1CC=C(C)C,11.8 µM,,Activity [7]: 3.8

# Source: ChEMBL document CHEMBL1149886, “Natural and non-natural prenylated chalcones: synthesis, cytotoxicity and anti-oxidative activity” (Bioorg Med Chem, 2008)
